# Measured values taken from patent EP0236542B1, “Novel organic phosphinic acid compounds” (CYANAMID CANADA INC., priority 1980, dated 1982).
# Where two headings read alike, the source gives them in different places.
# Assay: pKa determination in 75% isopropanol
# Type: physicochemical
# Details: product as isolated (assay about 85-88% phosphinic acid)
smiles,measurement,setting,value
"CC(CC(C)(C)C)CP(=O)(O)CC(C)CC(C)(C)C (centres unmarked) [di-2,4,4 -trimethylpentylphosphinic acid]",pKa,,6.03 ± 0.05
"CC(CC(C)(C)C)CP(=O)(O)C1CCCCC1 (centres unmarked) [2,4,4 -trimethylpentyl, cyclohexylphosphinic acid]",pKa,read-out: pKa,6.04
